Results published in patent US9943525B2, “Composition for reducing cell senescence comprising Rho-kinase inhibitor and use thereof” (Samsung Electronics Co., Ltd., priority 2014, dated 2018).

Tests used:
[1] = system: senescent fibroblasts (after 37 cell passages); assay: mitochondrial ROS (MitoSOX) by flow cytometry; assay type: cell-based, human; settings: vs control, p<0.05, FIG. 10
Method: In addition, damage of mitochondria was identified by measuring reactive oxygen species (ROS) and mitochondrial membrane potentials which are well known in the art. ROS were measured using a 0.2 μM MitoSOX (Invitrogen, M3608) according to manufacturer's manuals. Light having a wavelength of 520 nm was irradiated to the cells using a FACSCaliber (Beckton Dickinson), and light emission was measured at 580 nm. The results were analyzed using a Cell Quest 3.2 software (Beckton Dickinson). […] In FIG. 10, * indicates statistically significant (p<0.05).

[2] = system: senescent fibroblasts (after 37 cell passages); assay: mitochondrial membrane potential (JC-1) by flow cytometry; assay type: cell-based, human; settings: vs control, p<0.05, FIG. 11
Method: Mitochondrial membrane potentials were measured using a MitoProbe™ JC-1 Assay kit for Flow Cytometry (Life technologies, T3168) according to manufacturer's manuals. JC-1 is accumulated in mitochondria in a potential-dependent manner, and this accumulation is identified by fluorescence emission shift from green (about 529 nm) to red (about 590 nm). As a result, mitochondrial depolarization is identified by a decrease in a red/green fluorescence ratio. The mitochondrial membrane potentials were measured by excitation at 488 nm using a FACSCaliber (Beckton Dickinson) and using a flow cytometer by using 530/30 nm and 585/42 nm band pass filters. The results were analyzed using Cell Quest 3.2 software (Beckton Dickinson). FIG. 11 is a graph displaying action potentials of mitochondria. […] In FIG. 11, * indicates statistically significant (p<0.05). In FIG. 11, the vertical axis is mitochondrial membrane potential. “MMP” refers to mitochondria membrane potential.

[3] = system: senescent myoblasts (11 cell passages); assay: mitochondrial ROS (MitoSOX) by flow cytometry; assay type: cell-based, Human; settings: vs control, p<0.05, FIG. 15
Method: (§1) Myoblast cell lines (Human Skeletal Muscle Myoblasts, Lonza CC-2580 LOT:0000387550) were cultured in SkBM™-2 Basal Media (Lonza CC-3246) including an SkGM™-2 SingleQuots™ Kit (Lonza CC-3244) on plates coated with Collagen Type I (Greiner Bio One, 658950) in a 5% CO2 incubator at 37° C. Subculture was initiated when the cells were approximately 85% confluent in plates. Early subcultures were performed at a split ratio of 1:4, and later subcultures were performed at a split ratio of 1:2. When cell doubling time was 14 days, the cells were regarded as senescent myoblasts (cell passages 10 to 12).
(§2) Senescent cells were seeded on each well of a 6-well plate coated with Collagen Type I (Greiner Bio One, 657950) in a concentration of 2,000 cells/well. Senescent myoblasts (passage 11) were cultured in the presence of 5 μM of Y-27632, 5 μM of FASUDIL, and 0.5 μM of SR3677 for 4 weeks in a 5% CO2 incubator at 37° C. The culture media were changed at every 4 days with new culture media supplemented with 5 μM of Y-27632, 5 μM of FASUDIL, and 0.5 μM of SR3677. A negative control group was prepared in the same manner, except that 0.05 (v/v) % of DMSO was used.
ROS were measured using a 0.2 μM MitoSOX (Invitrogen, M3608) according to manufacturer's manuals. Light having a wavelength of 520 nm was irradiated to the cells using a FACSCaliber (Beckton Dickinson), and light emission was measured at 580 nm. The results were analyzed using Cell Quest 3.2 software (Beckton Dickinson).

[4] = system: senescent myoblasts (11 cell passages); assay: mitochondrial membrane potential (JC-1) by flow cytometry; assay type: cell-based, Human; settings: vs control, p<0.05, FIG. 16
Method: as §1, §2
Mitochondrial membrane potentials were measured using a MitoProbe™ JC-1 Assay kit for Flow Cytometry (Life technologies, T3168) according to manufacturer's manuals. JC-1 is accumulated in mitochondria in a potential-dependent manner, and this accumulation is identified by fluorescence emission shift from green (about 529 nm) to red (about 590 nm). As a result, mitochondrial depolarization is identified by a decrease in a red/green fluorescence ratio. The mitochondrial membrane potentials were measured by excitation at 488 nm using a FACSCaliber (Beckton Dickinson) and using a flow cytometer by using 530/30 nm and 585/42 nm band pass filters. The results were analyzed using Cell Quest 3.2 software (Beckton Dickinson).

[5] = system: senescent progeric fibroblasts (cell passage 17); assay: mitochondrial ROS (MitoSOX) by flow cytometry; assay type: cell-based, human; settings: vs control, p<0.05, FIG. 19
Method: Progeric fibroblasts (Hutchinson-Gilford Progeria Syndrome Skin Fibroblasts, Coriell Cell Repositories, AG03198 B) were cultured in Dulbecco's Modified Eagle's Media (DMEM) supplemented with 10% fetal bovine serpm (FBS) and 100 unit/ml of penicillin, and 100 μg/ml of streptomycin (two antibiotics are purchased from Gibro-BRL and Grand Island, N.Y.) in a 5% CO2 incubator at 37° C. Subculturing was initiated when the cells were approximately 85% confluent in plates. Early subcultures were performed at a split ratio of 1:4, and later subcultures were performed at a split ratio of 1:2. When cell doubling time was 14 days, the cells were regarded as senescent progeric fibroblasts (cell passages 16 to 17).
as §2, with “The senescent progeric fibroblasts (cell passage 17)” for “Senescent cells”, “plate” for “plate coated with Collagen Type I (Greiner Bio One, 657950)”, “cells/well and” for “cells/well. Senescent myoblasts (passage 11) were”
In addition, damage of mitochondria was identified by measuring reactive oxygen species (ROS) and mitochondrial membrane potentials which are well known in the art. ROS were measured using a 0.2 μM MitoSOX (Invitrogen, M3608) according to manufacturer's manuals. Light having a wavelength of 520 nm was irradiated to the cells using a FACSCaliber (Beckton Dickinson), and light emission was measured at 580 nm. The results were analyzed using Cell Quest 3.2 software (Beckton Dickinson). FIG. 19 is a graph displaying reactive oxygen species of progeric fibroblasts (cell passage 17) cultured in the presence of Rho-kinase inhibitors Y-27632 (5 μM), Fasudil (5 μM), and SR3677 (0.5 μM). […] In FIG. 19, * indicates statistically significant (p<0.05).

| Structure (SMILES) | ROS ([1]; 5 μM) | action potentials of mitochondria (mitochondrial membrane potential) ([2]; 5 μM) | ROS ([3]; 5 μM) | action potentials of mitochondria (mitochondrial membrane potential) ([4]; 5 μM) | ROS ([5]; 5 μM) | ROS ([1]; 0.5 μM) | action potentials of mitochondria (mitochondrial membrane potential) ([2]; 0.5 μM) | ROS ([3]; 0.5 μM) | action potentials of mitochondria (mitochondrial membrane potential) ([4]; 0.5 μM) | ROS ([5]; 0.5 μM) |
| --- | --- | --- | --- | --- | --- | --- | --- | --- | --- | --- |
| O=S(=O)(c1cccc2cnccc12)N1CCCNCC1 [FASUDIL, 5-(1,4-diazepane-1-sulfonyl)isoquinoline] | significantly reduced | significantly increased | significantly reduced | significantly increased | significantly reduced | – | – | – | – | – |
| CN(C)CCOc1cc(-c2cn[nH]c2)ccc1NC(=O)C1COc2ccccc2O1 (stereo not drawn) [SR3677] | – | – | – | – | – | significantly reduced | significantly increased | significantly reduced | significantly increased | significantly reduced |
| C[C@@H](N)[C@H]1CC[C@H](C(=O)Nc2ccncc2)CC1 [Y-27632, (1R,4R)-4-((R)-1-aminoethyl)-N-(pyridin-4-yl)cyclohexanecarboxamide] | significantly reduced | significantly increased | significantly reduced | significantly increased | significantly reduced | – | – | – | – | – |
